These results are taken from patent US20240408119A1, “DELIVERY OF THERAPEUTIC ALKALOID COMPOUNDS” (priority 2022, published 2024).

Data set [1] in a line: Hydrolysis Assay - Condition 1 (SGF). The class given is physicochemical. The following applies: SGF with pepsin pH 1.5, 37° C., 0.5 mM. How it is done: 50 μL of compound (10 mM) in DMSO was diluted into 950 μL of Simulated Gastric Fluid (SGF) with pepsin (pH 1.5) to a final concentration of 0.5 mM. The hydrolysis kinetics were conducted at 37° C. and measured by LCMS at a certain time interval.
(§1) The corresponding LCMS chromatogram were recorded and the conversions were calculated by integration of each peak.
(§2) • 1) LCMS spectra were obtained using Agilent 1200G1956A or SHIMADZU LCMS-2020. Standard LCMS conditions were as follows (running time 1.55 minutes): • Acidic condition: Mobile Phase A: 0.0375% TFA in water (v/v). Mobile Phase B: 0.01875% TFA in acetonitrile (v/v); Column: Kinetex EVO C18 30*2.1 mm, 5 μm. • Basic condition: Mobile Phase A: 0.025% NH3·H2O in water (v/v). Mobile Phase B: Acetonitrile; Column: Kinetex EVO C18 2.1×30 mm, 5 μm. • 2) Conversion (%)=peak area 1/(peak area 1+peak area 2)*100%, peak area 1 is the integration of hydrolyzed product, peak area 2 is the integration of starting material.

Data set [2] can be described thus: Hydrolysis Assay - Condition 2 (DI Water). The settings on record: 25° C., 0.5 mM. It counts as physicochemical. As for the experimental part: 50 μL of compound (10 mM) in DMSO was diluted into 950 μL of DI water to a final concentration of 0.5 mM. The hydrolysis kinetics were conducted at 25° C. and measured by LCMS at a certain time interval.
as §1, §2

Data set [3] is classed as in vitro ADME, mouse. The settings on record: prodrug remaining, 5 μM, 37° C. How it is done:
(§3) Each test was carried out in duplicate for each time point; 0 min, 15 min, 30 min, 60 min, 120, 240 min. […]

The format of data set [4] is in vitro ADME, human. The following applies: prodrug remaining, 5 μM, 37° C. As for the experimental part:
as §3

A short description of data set [5]: Plasma Stability Assay (Example A3), rat plasma. The following applies: prodrug remaining, 10 μM, 37° C. It counts as in vitro ADME. The source says:
(§4) The data is represented in the table below.

Data set [6] can be described thus: Plasma Stability Assay (Example A3), human plasma. The class given is in vitro ADME. The settings on record: prodrug remaining, 10 μM, 37° C.
Source text: as §4

A short description of data set [7]: Metabolic Stability in Human Hepatocytes. It counts as in vitro ADME. The following applies: cryopreserved human hepatocytes, 37° C. As for the experimental part: A 2.5 uL aliquot of 100 μM test compound was incubated with 247.5 uL of cryopreserved hepatocytes suspended in serum-free incubation medium at 5×10^5 viable cells/mL. The mixture was incubated at 37° C. and shaken at 500 rpm for the designated time points (0.5, 15, 30, 60, 90, or 120 min). At each time point, 25 μL aliquot of incubation mixture was transferred to 125 μL of cold acetonitrile containing internal standard, followed by centrifugation for 30 min at 3,220 g. 100 μL of supernatant was mixed with 100 μL of distilled water for analysis by LC-MS/MS. Peak areas were determined from extracted ion chromatograms and in vitro half-life (t1/2) was determined from the concentration vs time regression slope, in vitro t1/2=0.693/k. Conversion of the in vitro t1/2 (in min) into the in vitro intrinsic clearance (in vitro CLint, in μL/min/10^6 cells) is done using: in vitro CLint=kV/N.

Like-named read-outs stand apart in the source and are kept apart here.

As for `COc1ccc([C@@]23CCC(OC(=O)N4CCN(C)CC4)=C[C@@H]2N(C)CC3)cc1OC` [Compound 327, [(3aS,7aS)-3a-(3,4-dimethoxyphenyl)-1-methyl-3,4,5,7a-tetrahydro-2H-indol-6-yl]4-methylpiperazine-1-carboxylate], the “Condition 1 Conversion (%)” value in data set [1] (1 min), in data set [1] (5 min), in data set [1] (30 min), in data set [1] (1 h), in data set [1] (4 h) and in data set [1] (24 h) was 0% throughout. For the same compound, the “Condition 2 Conversion (%)” value in data set [2] (1 min), in data set [2] (5 min), in data set [2] (30 min), in data set [2] (1 h), in data set [2] (4 h) and in data set [2] (24 h) was 0% in each case. Besides, the “Mouse Plasma Prodrug (%)” value in data set [3] (0 min) is 100%; in data set [3] (15 min), above 99%; in data set [3] (30 min), above 99%; in data set [3] (60 min), above 99%; in data set [3] (120 min), above 99%; in data set [3] (240 min), above 99%. The “Human Plasma Prodrug (%)” value in data set [4] (0 min) is recorded as 100%; in data set [4] (15 min) it was above 99%; in data set [4] (30 min), 98.9%; in data set [4] (60 min), above 99%; in data set [4] (120 min) it was above 99%; in data set [4] (240 min), 94.4%.
With `COc1ccc([C@@]23CCC(OP(=O)(O)OCOC(=O)C(C)C)=C[C@@H]2N(C)CC3)cc1OC` [Compound 408, [[(3aS,7aS)-3a-(3,4-dimethoxyphenyl)-1-methyl-3,4,5,7a-tetrahydro-2H-indol-6-yl]oxy-hydroxy-phosphoryl]oxymethyl 2-methylpropanoate], the “Rat Plasma Prodrug (%)” value in data set [5] (0 min) came out at 100.0%; in data set [5] (10 min) it was 63.8%; in data set [5] (30 min), 29.2%; in data set [5] (60 min), 8.2%; in data set [5] (120 min) it was 0.8%; in data set [5] (240 min), 0.0%. Moreover, the “Human Plasma Prodrug (%)” value in data set [6] (0 min) came out at 100.0%; in data set [6] (10 min), 94.2%; in data set [6] (30 min), 82.6%; in data set [6] (60 min) it was 69.1%; in data set [6] (120 min) it was 45.4%; in data set [6] (240 min) it was 23.5%. In addition, the half-life (in general, the time in which the quantity being followed falls by half) at 1 μM in data set [7] is 220 min. Moreover, the hepatocyte CLint – broadly, a measure of how fast metabolising enzymes remove a compound, apart from limits set by blood flow – at 1 μM in data set [7] was 6.4 µL/min/1e6 cells.
As to `COc1ccc([C@@]23CCC(OP(=O)(O)OCOC(=O)C(C)(C)C)=C[C@@H]2N(C)CC3)cc1OC` [Compound 409, [[(3aS,7aS)-3a-(3,4-dimethoxyphenyl)-1-methyl-3,4,5,7a-tetrahydro-2H-indol-6-yl]oxy-hydroxy-phosphoryl]oxymethyl 2,2-dimethylpropanoate], the “Rat Plasma Prodrug (%)” value is listed as 100.0% in data set [5] (0 min); 89.9% in data set [5] (10 min); 81.2% in data set [5] (30 min); 71.0% in data set [5] (60 min); 44.5% in data set [5] (120 min); 22.7% in data set [5] (240 min). Also, the “Human Plasma Prodrug (%)” value in data set [6] (0 min) is listed as 100.0%; in data set [6] (10 min) it was above 99%; in data set [6] (30 min), 95.2%; in data set [6] (60 min), 93.0%; in data set [6] (120 min), 87.3%; in data set [6] (240 min) it was 75.8%. Moreover, the half-life at 1 μM in data set [7] was found to be 1540 min. The compound also came in with a hepatocyte CLint at 1 μM in data set [7] of 1.1 µL/min/1e6 cells.
In the case of `COc1ccc([C@@]23CCC(OP4(=O)OCCCO4)=C[C@@H]2N(C)CC3)cc1OC` [Compound 422, 2-(((3aS,7aS)-3a-(3,4-dimethoxyphenyl)-1-methyl-2,3,3a, 4,5,7a-hexahydro-1H-indol-6-yl)oxy)-1,3,2-dioxaphosphinane 2-oxide], the “Rat Plasma Prodrug (%)” value is given as 100.0% in data set [5] (0 min); above 99% in data set [5] (10 min); above 99% in data set [5] (30 min); above 99% in data set [5] (60 min); 91.0% in data set [5] (120 min); 76.8% in data set [5] (240 min). In addition, the “Human Plasma Prodrug (%)” value came to 100.0% in data set [6] (0 min); 89.4% in data set [6] (10 min); 73.1% in data set [6] (30 min); 62.4% in data set [6] (60 min); 39.2% in data set [6] (120 min); 19.6% in data set [6] (240 min). Besides, in data set [7], the half-life at 1 μM came to 366 min. The compound also gave a hepatocyte CLint at 1 μM in data set [7] of 3.9 µL/min/1e6 cells.
In the case of `COc1ccc([C@@]23CCC(OP4(=O)OC(C)CC(C)O4)=C[C@@H]2N(C)CC3)cc1OC` (stereo partly drawn) [Compound 423, 2-(((3aS,7aS)-3a-(3,4-dimethoxyphenyl)-1-methyl-2,3,3a, 4,5,7a-hexahydro-1H-indol-6-yl)oxy)-4,6-dimethyl-1,3,2-dioxaphosphinane 2-oxide], the “Rat Plasma Prodrug (%)” value was 100.00% in data set [5] (0 min); above 99% in data set [5] (10 min); above 99% in data set [5] (30 min); 91.05% in data set [5] (60 min); 83.29% in data set [5] (120 min); 67.32% in data set [5] (240 min). In addition, the “Human Plasma Prodrug (%)” value in data set [6] (0 min) is on record as 100.00%; in data set [6] (10 min), above 99%; in data set [6] (30 min), above 99%; in data set [6] (60 min), 98.77%; in data set [6] (120 min), 97.80%; in data set [6] (240 min), 89.67%. The half-life at 1 μM in data set [7] is 57 min. The compound further gave a hepatocyte CLint at 1 μM in data set [7] of 24.4 µL/min/1e6 cells.
